Data on 7 compounds can be found in US12527766B2, “Methods of treating acute coronary syndrome using 3,3′-diindolylmethane” (Boulder BioScience LLC, priority 2020, dated 2026).

The test system of data set [1] is human neutrophils. Kind of data set: Sytox Orange extracellular DNA release (NET) assay. It counts as cell-based. The source says:
(§1) Neutrophil isolation: Neutrophils were isolated from the peripheral blood of healthy donors, under a protocol approved by an institutional ethics committee. All subjects gave written informed consent in accordance with the Declaration of Helsinki. Briefly, whole blood was collected using an anticoagulant (sodium citrate), and isolated as previously described using a Percoll gradient separation of neutrophils from other leukocytes (Modulation of multiple neutrophil functions by preparative methods or trace concentrations of bacterial lipopolysaccharide. Haslett C, et al. Am J Pathol. 1985 April; 119(1): 101-10). Neutrophils were suspended in RPMI, 2% heat-inactivated human plasma, and 10 mM HEPES, pH7.5 (complete RPMI) to a neutrophil specific concentration of 2.2×10^6 neutrophils/ml.
First Neutrophil Extracellular Trap (NET) indicating assay: A Sytox Orange extracellular DNA release assay was utilized. For the experiments using DIM from self-emulsifying SMEDDS BR-9001 (i.e., Example 1), purified human neutrophils (2×10^5 per sample) in complete RPMI were allowed to settle in 24-well plates in the presence of DIM from self-emulsifying DIM formulation SMEDDS—BR-9001 (12% DIM) providing experimental DIM concentrations of 1, 3, 10, and 30 μM. Control wells received SMEDDS excipient vehicle mixture alone (diluted to provide excipient mixture concentrations equivalent to excipients present in the 3 and 30 μM DIM experimental wells). Neutrophils (2×10^5 per well) were plated in a black-walled 96-well plate and allowed to settle in the presence of DIM from BR-9001 or excipient vehicle control for 30 min. After 30 minutes neutrophils in wells were stimulated with recombinant fusion protein (F Protein (1 μg/ml, Sino Biologicals) or phenolextracted lipopolysaccharide (LPS; 10 μg/ml; List Biologicals). and 5 μM Sytox Orange (Thermo Fisher) was added and gently mixed. The plate was placed in a prewarmed (37° C.) fluorescence plate reader (BioTek FLX-800) and fluorescence read at excitation/emission of 540/600 every 10 minutes over 4 hours. Following this, 1% saponin was added to lyse neutrophils to provide 100% DNA release for experiments presented in FIGS. 1A and 1B. This allowed results to be presented as proportion of total DNA in these experiments. Otherwise results are reported as relative fluorescent units (FIGS. 3A and 3B). The kinetics or 4-hour results were reported as described (Sec FIGS. 1A and 1B and FIG. 3A).
A second set of experiments were performed using crystalline DIM solubilized in DMSO prior to addition to culture wells. […] The plate was placed in a prewarmed (37° C.) fluorescence plate reader and fluorescence read as above every 10 minutes over 4 hours. […]

In data set [2] the test system is human neutrophils. In words: Fluorescent imaging of extracellular DNA (Sytox Orange microscopy). It counts as cell-based.
Text: as §1
Fluorescent imaging of extracellular DNA for photo-micrograph data: Neutrophils (5×10^5 per well) were spotted on a glass microscope chamber slide (Ibidi) and cells were stimulated for 4 hours as indicated above with F Protein or LPS, at 37° C. in a humidified chamber, and stained with 0.2 μM Sytox Orange for the final 10 minutes. The slides were fixed in 2% formaldehyde (Sigma) for 10 min at room temperature and imaged.

Data set [3] concerns carotid artery thromboses. Kind of data set: FeCl3 carotid artery thrombosis in mice, H&E fibrin content. It counts as in vivo, mice (C57BL6/J). The conditions noted are these: DIM treated animals (oral and IV groups). As for the experimental part:
Animals: All mice were of C57BL6/J background. Specific pathogen-free mice were obtained from Envigo, USA. All mice used for experiments were between 11 and 14 weeks old. Each experimental group was weight and sex-matched so that experiments were carried out on male and female mice with similar weight and in equal sex distribution between groups. All procedures were performed on anaesthetized animals using a uniform technique of inhaled Isoflurane combined with supplemental parenteral agents. Animals were sacrificed under deep anesthesia. All animal experiments were carried out according to the guidelines from the Guide for Care and Use of Laboratory Animals and The Public Health Service (PHS) Policy on Humane Care and Use of Laboratory Animals. All experimental procedures performed on animals met the requirements of the Guide for the protection of animals used for scientific purposes. Induction of arterial thrombosis after Ferric Chloride exposure: For thrombus induction in the distal carotid artery in vivo, local application of FeCl3 was used following an established method (Wang et al, 2005, supra). In brief, mice were anesthetized using 2-3% inhaled isoflurane, shifting to lower dose maintenance isoflurane and supplemented with a fixed combination of intra-peritoneal buprenorphine, midazolam and dexmedetomidine. […]

The conditions of data set [4]: following oral administration; cited from earlier work.
The conditions of data set [5]: cited from earlier work; for Log P: table of second active agents; for Log P of Second Active Agent: co-formulation table.
The conditions of data set [6]: in vivo and in vitro; cited from earlier work.

Where a name gives a salt, the structure may show the parent alone.

As usually defined, the IC50 is the concentration that gives 50% inhibition. With `c1ccc2c(Cc3c[nH]c4ccccc34)c[nH]c2c1` [DIM, 3,3′-diindolylmethane], the “delay in DNA release versus absence of DIM” value with human neutrophils [1] (F protein and LPS stimulated neutrophils) is recorded as “about 1 hours”. Besides, the 50% inhibitory concentration (IC50) with human neutrophils [1] (Homo sapiens, Neutrophil, free DIM (crystalline, in DMSO), read-out: estimated IC50, inhibition of DNA release) is 3 to 30 µM. Further, the “effect on DNA release (Sytox Orange)” value in the data set on human neutrophils [1] (free DIM in DMSO 1, 3, 10, 30 μM, F Protein 1 μg/ml) was “dose-dependent inhibitory effect”. In the data set on human neutrophils [1] (non-stimulated neutrophils), the “spontaneous DNA release” value is “did not inhibit”. The “extracellular DNA positive cells (microscopy)” value in the data set on human neutrophils [2] (3 μM to 30 μM DIM) is given as “dose response”. For the same compound, the “visualization of extracellular DNA (microscopy)” value with human neutrophils [2] (API (free) DIM, F Protein and LPS, 4 h) is recorded as “inhibited visualization of extracellular DNA”. The “thrombus composition (H&E) versus Vehicle Control” value in data set [3] was “less compact thrombi, primarily composed of red cells (RBCs), with a minimum of fibrin and lower presence of leukocytes”. In addition, the tissue distribution result in data set [4] is given as “concentrates in brain tissue”.
Turning to `COC(=O)/C=C/C(=O)OC` [Dimethyl Fumarate, Dimethyl fumarate], in data set [5], the “Log P” value is on record as “Log P - 0.62”.
Take `O=c1c2ccccc2[se]n1-c1ccccc1` [Ebselen]: the “Log P” value in data set [5] is reported as “Log P - 2.65”.
Regarding `CCCCCCCCc1ccc(CCC(N)(CO)CO)cc1` [Fingolimod], in data set [5], the “Log P of Second Active Agent” value is reported as 5.25 and the “Log P” value is given as “Log P - 5.25”.
For the compound `CCCSc1nc(N[C@@H]2C[C@H]2c2ccc(F)c(F)c2)c2nnn([C@@H]3C[C@H](OCCO)[C@@H](O)[C@H]3O)c2n1` [Ticagrelor], in data set [5], the “Log P of Second Active Agent” value is given as 1.90 and the “Log P” value is given as “Log P - 1.90”.
In the case of `OCc1c[nH]c2ccccc12` [indole-3-carbinol, 1H-indol-3-ylmethanol], the conversion products entry in data set [6] was “converts to DIM and LTR”.
As for “Anakinra: recombinant and slightly modified version of the human interleukin 1 receptor antagonist protein”, the “Log P” value in data set [5] was “Log P - 2.69”.
